Assay results taken from patent US20230112444A1, “COMBINATION THERAPIES OF CHIMERIC ANTIGEN RECEPTORS TARGETING B-CELL […] AND GAMMA SECRETASE INHIBITORS” (priority 2020, published 2023).
Like-named read-outs stand apart in the source and are kept apart here.

How the values were obtained:
MM.1S cells = assay: Cytolytic activity of BCMA CAR T cells against target cells pre-incubated with PF-03084014; format: cell-based, human; conditions: MM.1S target cells pre-incubated with PF-03084014 for 24 hours, then 24 hours co-culture (FIG. 25B)
Method: (§1) In a separate experiment, cytolytic activities of BCMA CAR-T cells were evaluated after the target multiple myeloma cells were first pre-incubated with PF-03084014. FIG. 25A depicts the cell surface expression level of BCMA on the multiple myeloma cell line MM.1S and the BCMA negative control cell line […] after a 24-hour culture in the presence of increasing concentrations of the gamma secretase inhibitor PF-03084014. The data is shown as mean fluorescence intensity (MFI) values of BCMA. FIG. 25B depicts the cytolytic activity of BCMA CAR T cells against MM.1S cells previously treated with PF-03084014 for 24 hours. In the cytolytic assay, BCMA CAR T cells and target cells were co-cultured at different effector to target (E:T) ratios for 24 hours and residual target cell viability was measured using bioluminescence. Results are shown as mean+/−SEM.

BCMA-negative REH cells = assay: Surface BCMA by flow cytometry in BCMA-negative REH control cells exposed to PF-03084014; format: cell-based, human; conditions: REH negative control cell line, 4-hour treatment
Method: The BCMA-expressing multiple myeloma cell lines MM.1S and Molp-8 (ATCC), and the BCMA-negative acute lymphocytic leukemia cell line REH (ATCC) were expanded in RPMI medium containing L-glutamine and 10% FBS in a humidified CO2 incubator set to 37 degrees. The gamma secretase inhibitor (GSI) PF-03084014 (nirogacestat in the hydrobromide salt form, Sigma-Aldrich, #PZ0298) was diluted in H2O at mg/mL and further diluted in cell culture medium as needed. Cells were cultured in the presence of increasing concentrations of PF-03084014 or vehicle (control) in a humidified CO2 incubator set to 37° C. for 4 hours or 24 hours. Cells were then harvested by centrifugation for 5 min at 400×g and stained with a phycoerythrin (PE)-labeled anti-human BCMA antibody (BioLegend, Cat #357504) for 30 min at 4° C. Samples were analyzed by flow cytometry using a Cytoflex flow cytometer (Beckman Coulter) and expression levels of BCMA (mean fluorescence intensity, MFI) were determined using FlowJo version 10.4.1. Fold-change in surface BCMA was calculated as the MFI value of GSI-treated cells divided by the MFI value of cells receiving vehicle control. Maximal (100%) inhibition of gamma-secretase activity was defined as the maximal fold-change in surface BCMA. […] The data was then fitted using a non-linear regression (four-parameter logistic curve) function and EC50 was calculated using GraphPad.

[1] = Phase 1 dose-finding study (A8641014) of nirogacestat, minimum concentration; format: in vivo, human; conditions: 100 mg BID, solid tumor patients; conversion of ng/mL value
Method: See, e.g., FIG. 22C. […] A dose of 100 mg BID nirogacestat is expected to maintain serum concentrations of nirogacestat at or above the levels required to prevent the cleavage of BCMA by gamma secretase, thereby leading to reduced soluble BCMA and increased membrane-bound BCMA.

BCMA CAR-T cells = assay: Target-dependent BCMA CAR-T cell proliferation in the presence of PF-03084014 (co-culture with REH-BCMA cells); format: cell-based, human; conditions: Day 5, up to the highest concentration (FIG. 23)
Excerpt: A BCMA-negative acute lymphocytic leukemia cell line (REH) was genetically modified to overexpress BCMA with the use of a lentiviral vector encoding the human BCMA protein under regulatory control of the EF1alpha promoter (REH-BCMA cells). BCMA-overexpressing cells co-expressing luciferase and green fluorescent protein (GFP) were then created by transducing the cells with a Luc2AGFP/Blasticidin lentiviral vector following the manufacturer's recommendations. The exemplary BCMA CAR tested in the experiments comprises the VH amino acid sequence of SEQ ID NO: 33 and VL amino acid sequence of SEQ ID NO: 34). The BCMA CAR-T cells were generated and cryopreserved as previously described (Sommer et al., Molecular Therapy 2019, 27 (6): 1126-1138), thawed, and used in the assays as follows. Briefly, 5×10^5 CAR^+ T cells were co-cultured with 2×10^6 REH-BCMA cells in 2.5 mL of target cell medium (RPMI with L-glutamine, 10% FBS) without IL-2 using G-Rex 24-well plates. PF-03084014 was added to cells at increasing concentrations whereas the control wells received vehicle. […] On Day 5, cells were counted and the percentage of residual target cells and CAR-T cells were determined by flow cytometry analysis. […] Target-cell dependent proliferation/persistence in the presence or absence of PF-03084014 was determined by dividing the total number of CAR^+ cells by the starting cell number (5×10^5).

gamma secretase [2] = assay: Surface BCMA by flow cytometry / inhibition of gamma secretase activity in Molp-8 cells exposed to PF-03084014; format: cell-based, human
Method: (§2) The BCMA-expressing multiple myeloma cell lines MM.1S and Molp-8 (ATCC), and the BCMA-negative acute lymphocytic leukemia cell line REH (ATCC) were expanded in RPMI medium containing L-glutamine and 10% FBS in a humidified CO2 incubator set to 37 degrees. The gamma secretase inhibitor (GSI) PF-03084014 (nirogacestat in the hydrobromide salt form, Sigma-Aldrich, #PZ0298) was diluted in H2O at mg/mL and further diluted in cell culture medium as needed. Cells were cultured in the presence of increasing concentrations of PF-03084014 or vehicle (control) in a humidified CO2 incubator set to 37° C. for 4 hours or 24 hours. Cells were then harvested by centrifugation for 5 min at 400×g and stained with a phycoerythrin (PE)-labeled anti-human BCMA antibody (BioLegend, Cat #357504) for 30 min at 4° C. Samples were analyzed by flow cytometry using a Cytoflex flow cytometer (Beckman Coulter) and expression levels of BCMA (mean fluorescence intensity, MFI) were determined using FlowJo version 10.4.1. Fold-change in surface BCMA was calculated as the MFI value of GSI-treated cells divided by the MFI value of cells receiving vehicle control. Maximal (100%) inhibition of gamma-secretase activity was defined as the maximal fold-change in surface BCMA. To obtain half-maximal effective concentration (EC50) values, gMFI was plotted as a function of the logarithm of the concentration of PF-03084014. The data was then fitted using a non-linear regression (four-parameter logistic curve) function and EC50 was calculated using GraphPad.

[3] = tested on: MM.1S, Molp-8 and REH-BCMA cells; assay: In vitro cytolytic activity of BCMA CAR-T cells in the presence of PF-03084014 (luciferase); format: cell-based, human; conditions: PF-03084014 0.01 μM to 10 μM added during 24 hour co-culture, E:T 1:3, 1:1, 3:1 (FIG. 24)
Method: The multiple myeloma cell lines MM.1S and Molp-8 and the BCMA-overexpressing REH cell line (REH-BCMA cells) were used in these assays. The target cell lines have been modified to constitutively express the luciferase gene which allows assessment of cell viability via luminescence. The cytotoxic activity of BCMA CAR-T cells was determined by measuring the reduction of luminescence signal from live target cells after 24 hour co-culture with BCMA CAR-T cells at increasing effector to target (E:T) ratios (1:3, 1:1, 3:1). Briefly, 2×10^4 luciferase-expressing target cells were co-cultured with BCMA CAR-T cells at defined E:T ratios in target cell culture medium (RPMI with L-glutamine, 10% FBS) without IL-2. The GSI PF-03084014 was added to wells at increasing concentrations (0.01 μM to 10 μM) and cells were cultured in a humidified CO2 incubator set to 37° C. for 24 hours. Following the incubation period, 100 μL of Bright-GLO reagent (Promega) were added and luminescence was read on a luminometer (Spectramax; Molecular Devices). Relative luminescence units (RLU) were converted to percentage of lysed target cells using the formula 100×[1−(RLUtest/RLUcontrol)]. Untreated target cells were used to determine RLU control.

[4] = 100 mg BID, solid tumor patients; cited from earlier work
gamma secretase [5] = assay: Surface BCMA by flow cytometry / inhibition of gamma secretase activity in MM.1S cells exposed to PF-03084014; format: cell-based, human
Method: as §2, §1

[6] = 4-hour treatment, dose-dependent (FIG. 22A)

Compound: CCC[C@H](N[C@H]1CCc2cc(F)cc(F)c2C1)C(=O)Nc1cn(C(C)(C)CNCC(C)(C)C)cn1 [PF-03084014, nirogacestat]
- Effect on cytolytic activity of BCMA CAR T cells (MM.1S cells): enhanced cytolytic effect
- Dose-dependent increase of BCMA on the cell surface (BCMA-negative REH cells): not seen
- Minimum concentration (Cmin) [1]: approximately 480 nM
- Effect on target-dependent BCMA CAR-T cell expansion (BCMA CAR-T cells): did not negatively affect CAR-T cell expansion
- Levels of BCMA on the cell surface (gamma secretase [2]; [6]): increased levels of BCMA detected on the cell surface
- Inhibition of gamma secretase activity (gamma secretase [2]; 24 hours treatment (FIG. 22C)): dose-dependent inhibition of gamma secretase activity
- EC50 (gamma secretase [2]; 24 hours treatment, flow cytometry of surface BCMA, read-out: EC50 on gamma secretase (surface BCMA) determined using the Molp-8 cell line): 22.4 nM
- Effect on target cell killing by BCMA CAR-T cells [3]: enhanced target cell killing was not observed
- Minimum concentration (Cmin) [4]: 232 ng/mL
- Levels of BCMA on the cell surface (gamma secretase [5]; [6]): increased levels of BCMA detected on the cell surface
- Levels of BCMA on multiple myeloma cells (MFI) (gamma secretase [5]; 24 hours incubation (FIG. 25A)): increased levels of BCMA
- Inhibition of gamma secretase activity (gamma secretase [5]; 24 hours treatment (FIG. 22C)): dose-dependent inhibition of gamma secretase activity
- EC50 (gamma secretase [5]; 24 hours treatment, flow cytometry of surface BCMA, read-out: EC50 on gamma secretase (surface BCMA) determined using the MM.1S cell line): 0.12 nM
